Measurements published in PubChem BioAssay (NCI).
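Five concentrations, 48 hours, 96-well plates. At the TGI there is no net growth.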

Assays:
Test in all cases: growth of human tumour cells (NCI), 48 h
[1] = test system: HOP-62 NSCLC
[2] = test system: HCC-2998 colon
[3] = test system: UO-31 renal
[4] = test system: SK-MEL-5 melanoma
[5] = test system: SF-268 CNS
[6] = test system: TK-10 renal
[7] = test system: SNB-19 CNS
[8] = test system: KM12 colon
[9] = test system: A549 NSCLC
[10] = test system: NCI-H23 lung
[11] = test system: SF-295 CNS
[12] = test system: MOLT-4 leukemia
[13] = test system: IGROV1 ovarian
[14] = test system: NCI-H226 lung
[15] = test system: HT29 colon
[16] = test system: UACC-62 melanoma
[17] = test system: ACHN renal
[18] = test system: RPMI-8226 leukemia
[19] = test system: UACC-257 melanoma
[20] = test system: U251 CNS
[21] = test system: HS 578T breast
[22] = test system: SW-620 colon
[23] = test system: HCT-15 colon
[24] = test system: OVCAR-3 ovarian
[25] = test system: HOP-92 NSCLC
[26] = test system: 786-0 renal
[27] = test system: CAKI-1 renal
[28] = test system: PC-3 prostate
[29] = test system: MCF7 breast
[30] = test system: MDA-MB-435
[31] = test system: SK-MEL-28 melanoma
[32] = test system: BT-549 breast
[33] = test system: OVCAR-8 ovarian
[34] = test system: DU-145 prostate
[35] = test system: MALME-3M melanoma
[36] = test system: RXF 393 renal
[37] = test system: SR leukemia
[38] = test system: NCI-H522 lung
[39] = test system: HCT-116 colon
[40] = test system: OVCAR-5 ovarian
[41] = test system: SK-OV-3 ovarian
[42] = test system: EKVX NSCLC
[43] = test system: NCI/ADR-RES ovarian
[44] = test system: MDA-MB-231 breast
[45] = test system: K-562 leukemia
[46] = test system: COLO 205 colon
[47] = test system: SF-539 CNS
[48] = test system: NCI-H460 lung
[49] = test system: M14 melanoma
[50] = test system: SN12C renal
[51] = test system: MDA-N
[52] = test system: T-47D breast
[53] = test system: SK-MEL-2 melanoma
[54] = test system: OVCAR-4 ovarian
[55] = test system: A498 renal
[56] = test system: SNB-75 CNS
[57] = test system: LOX IMVI melanoma
[58] = test system: CCRF-CEM leukemia

CCOC(=O)[C@@H]1C[C@@H]1c1ccc(O)c(O)c1
TGI [1]: > 100 µM | TGI [2]: 67.7 µM | TGI [3]: 60.9 µM | TGI [4]: 27.5 µM | TGI [5]: > 100 µM | TGI [6]: > 100 µM | TGI [7]: > 100 µM | TGI [8]: 82.2 µM | TGI [9]: > 100 µM | TGI [10]: > 100 µM | TGI [11]: > 100 µM | TGI [12]: 22.5 µM | TGI [13]: > 100 µM | TGI [14]: 97.4 µM | TGI [15]: > 100 µM | TGI [16]: 27 µM | TGI [17]: > 100 µM | TGI [18]: 77 µM | TGI [19]: > 100 µM | TGI [20]: > 100 µM | TGI [21]: > 100 µM | TGI [22]: 42.2 µM | TGI [23]: > 100 µM | TGI [24]: 67.8 µM | TGI [25]: > 100 µM | TGI [26]: 34.7 µM | TGI [27]: > 100 µM | TGI [28]: > 100 µM | TGI [29]: 35.2 µM | TGI [30]: 34.5 µM | TGI [31]: > 100 µM | TGI [32]: 75.9 µM | TGI [33]: 52.2 µM | TGI [34]: > 100 µM | TGI [35]: > 100 µM | TGI [36]: 54 µM | TGI [37]: > 100 µM | TGI [38]: 26.5 µM | TGI [39]: 32.7 µM | TGI [40]: > 100 µM | TGI [41]: > 100 µM | TGI [42]: > 100 µM | TGI [43]: > 100 µM | TGI [44]: 27.8 µM | TGI [45]: 32.9 µM | TGI [46]: > 100 µM | TGI [47]: 49.3 µM | TGI [48]: > 100 µM | TGI [49]: 25.2 µM | TGI [50]: > 100 µM | TGI [51]: 35.1 µM | TGI [52]: 51.7 µM | TGI [53]: 68.8 µM

COc1cc(S(=O)(=O)Nc2ccc(-c3csc(/N=C\c4cccs4)n3)cc2)ccc1Cl
TGI [1]: > 100 µM | TGI [2]: 70.1 µM | TGI [54]: > 100 µM | TGI [3]: > 100 µM | TGI [4]: > 100 µM | TGI [5]: > 100 µM | TGI [6]: > 100 µM | TGI [7]: > 100 µM | TGI [9]: > 100 µM | TGI [10]: > 100 µM | TGI [11]: > 100 µM | TGI [13]: > 100 µM | TGI [14]: > 100 µM | TGI [15]: > 100 µM | TGI [16]: 92.2 µM | TGI [55]: > 100 µM | TGI [56]: 81.5 µM | TGI [17]: > 100 µM | TGI [18]: > 100 µM | TGI [19]: > 100 µM | TGI [21]: > 100 µM | TGI [22]: > 100 µM | TGI [23]: > 100 µM | TGI [24]: > 100 µM | TGI [25]: > 100 µM | TGI [26]: > 100 µM | TGI [27]: > 100 µM | TGI [28]: > 100 µM | TGI [29]: 48.5 µM | TGI [30]: 96.9 µM | TGI [31]: > 100 µM | TGI [32]: > 100 µM | TGI [33]: > 100 µM | TGI [34]: > 100 µM | TGI [57]: > 100 µM | TGI [35]: > 100 µM | TGI [37]: 52.2 µM | TGI [38]: > 100 µM | TGI [39]: > 100 µM | TGI [40]: > 100 µM | TGI [41]: > 100 µM | TGI [42]: > 100 µM | TGI [43]: > 100 µM | TGI [44]: > 100 µM | TGI [45]: > 100 µM | TGI [46]: > 100 µM | TGI [47]: > 100 µM | TGI [48]: > 100 µM | TGI [49]: > 100 µM | TGI [50]: > 100 µM | TGI [51]: > 100 µM | TGI [52]: 62.8 µM | TGI [58]: 80.3 µM | TGI [53]: > 100 µM
